In PMC7526454 (JCI Insight, 2020):
Where “and” joins values, the source holds several entries; their conditions need not be identical. Equal values may be shown once. Starred links: 1 amine or outer side, 2 acyl side, 3 side chain; linkers in the order of their positions; H or OH if unused. Non-standard residues stand in square brackets, D forms with d. Groups on a side chain read outwards from the residue. No end group written: not given here. *: point of attachment. C20 diacid = O=C(O)CCCCCCCCCCCCCCCCCCC(=O)*; γGlu = O=C(O)[C@H](CCC(=O)[*:2])N[*:1]; AEEA = NCCOCCOCC(=O)O; Aib = CC(C)(N)C(=O)O

Experiments:
pancreatic islets = experiment: Pancreatic islet perifusion, insulin secretion; details: ex vivo perifusion, male mice, iAUC; GLP-1 300 pM, GIP 3 nM (after 1 μM Ex9), tirzepatide 1 nM
[1] = native ligand, during meal induced incretin secretion; cited from earlier work
[2] = biological target: mouse GLP-1R–LgBiT (mouse) (UniProt O35659)
Chain of mouse GLP-1R–LgBiT (mouse) (O35659 22-463): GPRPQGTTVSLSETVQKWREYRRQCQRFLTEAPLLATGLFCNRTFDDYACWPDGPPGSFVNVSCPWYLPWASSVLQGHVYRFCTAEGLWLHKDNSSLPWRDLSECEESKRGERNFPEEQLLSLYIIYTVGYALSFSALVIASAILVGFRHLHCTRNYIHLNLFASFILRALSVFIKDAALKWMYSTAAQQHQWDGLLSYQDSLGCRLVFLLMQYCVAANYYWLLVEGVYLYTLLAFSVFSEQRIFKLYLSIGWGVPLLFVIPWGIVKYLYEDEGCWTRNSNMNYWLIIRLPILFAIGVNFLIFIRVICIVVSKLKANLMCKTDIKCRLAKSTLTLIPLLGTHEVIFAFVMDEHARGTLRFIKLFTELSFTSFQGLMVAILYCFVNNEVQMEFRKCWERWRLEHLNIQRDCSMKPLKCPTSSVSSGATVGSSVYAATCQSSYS

GLP-1R [3] = biological target: T1, GLP-1R (Homo sapiens, UniProt P43220); experiment: ARRB2 recruitment, CHO-K1 PathHunter enzyme fragment complementation; assay type: cell-based
T1 sequence (P43220 24-463): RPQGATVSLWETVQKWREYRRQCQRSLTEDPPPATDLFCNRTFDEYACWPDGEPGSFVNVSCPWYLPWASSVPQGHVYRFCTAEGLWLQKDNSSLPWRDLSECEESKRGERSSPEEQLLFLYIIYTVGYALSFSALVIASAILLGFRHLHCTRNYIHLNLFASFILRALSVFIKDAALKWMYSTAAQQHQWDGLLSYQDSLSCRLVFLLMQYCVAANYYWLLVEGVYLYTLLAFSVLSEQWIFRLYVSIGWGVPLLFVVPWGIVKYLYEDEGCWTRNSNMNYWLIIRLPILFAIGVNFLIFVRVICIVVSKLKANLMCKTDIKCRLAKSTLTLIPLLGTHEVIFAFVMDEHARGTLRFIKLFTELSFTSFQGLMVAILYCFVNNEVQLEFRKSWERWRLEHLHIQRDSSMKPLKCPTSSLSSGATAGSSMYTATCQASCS
Experimental: ARRB2 recruitment to human GIPR and GLP-1R was quantified in CHO-K1 PathHunter cells expressing C-terminally fused ProLink1 receptors and Enzyme Acceptor fused ARRB2 from DiscoverX (Eurofins). […] Cell vials were thawed and added at equal volume in respective assay medium as previously stated. Recruitment of ARRB2 to activated receptors occurred at 37°C for 90 minutes, followed by cell lysis by the addition of 10 μL detection mixture containing β-galactosidase 93-0001 substrate to quantitate functional enzyme fragment complementation. Chemiluminescent signal was developed for 60 minutes at room temperature and quantified using an EnVision plate reader. Raw data were normalized to percent activation compared with control wells, and the curves were fit to the 4-parameter logistic model in Genedata Screener. As an alternative approach to measure β-arrestin recruitment, bioluminescent resonance energy transfer (BRET) was performed. […] Freestyle HEK cells (R79007, Thermo Fisher Scientific) were transfected in antibiotic-free media using Fugene-6 complexed in optiMEM (Thermo Fisher Scientific). […] Emission was measured at 460 nm (donor) and 610 nm (acceptor) wavelengths. The BRET ratio was calculated as acceptor emission divided by donor emission. […] Agonist-stimulated protein-to-protein interaction of 2 fusion molecules were detected with Nano-Glo substrate and standard luminescent detection. […]

SNAP-tagged GLP-1R = biological target: T2, SNAP-tagged GLP-1R (Homo sapiens, UniProt P43220); experiment: Real-time internalization assay, SNAP-tagged receptor; assay type: cell-based; details: HEK293; read-out: internalization of SNAP-tagged GLP-1R, Emax relative to GLP-1
T2 construct: expressed in transfected cells
T2 sequence (P43220 24-463): as above

GLP-1R [4] = biological target: T1, GLP-1R; experiment: On-cell Western internalization assay, HA-GLP-1R-EGFP HEK293; assay type: cell-based; design: expressed in transfected cells; details: HEK293, surface GLP-1R 30 minutes after ligand, normalized to 1 μM GLP-1(7-36); mean (SEM, n); read-out: GLP-1R internalization, maximum effect relative to GLP-1
Experimental: For receptor internalization studies, DNA encoding human GIPR and GLP-1R with N-terminal 3X-HA epitope tags and C-terminal EGFP tags was constructed in pcDNA3.1.
HEK293 cells stably expressing HA-GIPR-EFGP or HA–GLP-1R–EFGP clones were plated into poly-D-lysine–coated 96-well microplates and cultured until cells reached 80%–90% confluency. On the day of assay, growth media was removed, and cells were rinsed once with prewarmed starvation media (growth media without serum or antibiotics, supplemented with 0.1% casein) and equilibrated with fresh media for 1 hour at 37°C, 5% CO2. […] Fixative was removed, and cells were washed in PBS and blocked with Odyssey blocking buffer (Licor) for 1 hour.

[5] = rodents, acute glucose challenge; read-out: in vivo EC50; cited from earlier work
From the text: (§1) We recognize that calculating pRO values has caveats (see Methods) and propose its use mainly for generating hypotheses and as a tool to probe mechanistic biology. For perspective, though, when examining the pRO values of other ligands, we observe that GLP-1R occupancy is also relatively low (about 10%). Based on established data, this makes sense in terms of the in vivo sensitivity of the GLP-1R system. […] In humans, active GLP-1 and GI ...

GLP-1R [6] = details: read-out: in vitro EC50; cited from earlier work
From the text: as §1

[7] = biological target: T3, human GIP receptor (GIPR) (human, UniProt P48546-1 22-466); experiment: cell-based or functional assay
T3 sequence (looked up): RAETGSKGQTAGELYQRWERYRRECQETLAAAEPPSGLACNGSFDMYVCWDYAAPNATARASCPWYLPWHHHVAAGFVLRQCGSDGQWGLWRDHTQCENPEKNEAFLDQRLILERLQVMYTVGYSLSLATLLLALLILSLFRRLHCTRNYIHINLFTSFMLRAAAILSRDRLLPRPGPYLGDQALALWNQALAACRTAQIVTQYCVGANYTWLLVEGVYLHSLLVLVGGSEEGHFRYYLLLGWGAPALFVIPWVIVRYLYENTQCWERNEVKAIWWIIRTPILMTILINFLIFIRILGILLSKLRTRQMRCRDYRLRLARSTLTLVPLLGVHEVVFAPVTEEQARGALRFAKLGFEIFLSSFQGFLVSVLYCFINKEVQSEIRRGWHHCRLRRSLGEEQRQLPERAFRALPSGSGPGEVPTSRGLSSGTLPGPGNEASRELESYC

[8] = biological target: T3, human GIP receptor (GIPR); experiment: radioligand binding; competition with [125I]GIP(1-42)OH (GIPR) or [125I]GLP-1(7-36)NH2 (GLP-1R), ~0.12–0.20 nM, on membranes of HEK293 cells expressing the human receptor held on WGA-PVT SPA beads; 1.0 mM MgCl2, 2.5 mM CaCl2, 0.003% w/v Tween-20, 0.1% w/v bacitracin, 25 mM HEPES pH 7.4; 18 hours at room temperature; Ki by the Cheng-Prussoff correction; details: one partner purified
[9] = biological target: T3, human GIP receptor (GIPR); experiment: radioligand binding; details: one partner purified

In the case of CC[C@H](C)[C@H](NC(=O)[C@H](CO)NC(=O)[C@H](Cc1ccc(O)cc1)NC(=O)[C@H](CC(=O)O)NC(=O)[C@H](CO)NC(=O)[C@@H](NC(=O)[C@H](Cc1ccccc1)NC(=O)[C@@H](NC(=O)CNC(=O)[C@H](CCC(=O)O)NC(=O)[C@H](C)NC(=O)[C@@H](N)Cc1ccc(O)cc1)[C@@H](C)O)[C@@H](C)CC)C(=O)N[C@@H](C)C(=O)N[C@@H](CCSC)C(=O)N[C@@H](CC(=O)O)C(=O)N[C@@H](CCCCN)C(=O)N[C@H](C(=O)N[C@@H](Cc1c[nH]cn1)C(=O)N[C@@H](CCC(N)=O)C(=O)N[C@@H](CCC(N)=O)C(=O)N[C@@H](CC(=O)O)C(=O)N[C@@H](Cc1ccccc1)C(=O)N[C@H](C(=O)N[C@@H](CC(N)=O)C(=O)N[C@@H](Cc1c[nH]c2ccccc12)C(=O)N[C@@H](CC(C)C)C(=O)N[C@@H](CC(C)C)C(=O)N[C@@H](C)C(=O)N[C@@H](CCC(N)=O)C(=O)N[C@@H](CCCCN)C(=O)NCC(=O)N[C@@H](CCCCN)C(=O)N[C@@H](CCCCN)C(=O)N[C@@H](CC(N)=O)C(=O)N[C@@H](CC(=O)O)C(=O)N[C@@H](Cc1c[nH]c2ccccc12)C(=O)N[C@@H](CCCCN)C(=O)N[C@@H](Cc1c[nH]cn1)C(=O)N[C@@H](CC(N)=O)C(=O)N[C@H](C(=O)N[C@H](C(=O)N[C@@H](CCC(N)=O)C(N)=O)[C@@H](C)O)[C@@H](C)CC)C(C)C)[C@@H](C)CC [GIP(1-42), GIP(1-42)NH2], the “insulin secretion of Arrb1βcell–/– islets compared with control islets” value (pancreatic islets) is reported as “not different”.

For CC[C@H](C)[C@H](NC(=O)[C@H](Cc1ccccc1)NC(=O)[C@H](CCC(=O)O)NC(=O)[C@H](CCCCN)NC(=O)[C@H](C)NC(=O)[C@H](C)NC(=O)[C@H](CCC(N)=O)NC(=O)CNC(=O)[C@H](CCC(=O)O)NC(=O)[C@H](CC(C)C)NC(=O)[C@H](Cc1ccc(O)cc1)NC(=O)[C@H](CO)NC(=O)[C@H](CO)NC(=O)[C@@H](NC(=O)[C@H](CC(=O)O)NC(=O)[C@H](CO)NC(=O)[C@@H](NC(=O)[C@H](Cc1ccccc1)NC(=O)[C@@H](NC(=O)CNC(=O)[C@H](CCC(=O)O)NC(=O)[C@H](C)NC(=O)[C@@H](N)Cc1c[nH]cn1)[C@@H](C)O)[C@@H](C)O)C(C)C)C(=O)N[C@@H](C)C(=O)N[C@@H](Cc1c[nH]c2ccccc12)C(=O)N[C@@H](CC(C)C)C(=O)N[C@H](C(=O)N[C@@H](CCCCN)C(=O)NCC(=O)N[C@@H](CCCNC(=N)N)C(N)=O)C(C)C [GLP-1(7-36), GLP-1(7-36)NH2], the “Css (free): range of Cmax values” [1] is listed as 5-15^E pM and the “insulin secretion of Arrb1βcell–/– islets compared with control islets” value (pancreatic islets) is listed as “secreted more insulin”.

For Tirzepatide (LY3298176) (peptide), the other [2] was 6.6 nM and 2.4 nM.

Molecule CC[C@H](C)[C@H](NC(=O)[C@H](CC(C)C)NC(=O)[C@H](Cc1c[nH]c2ccccc12)NC(=O)[C@H](CCC(N)=O)NC(=O)[C@@H](NC(=O)[C@H](Cc1ccccc1)NC(=O)[C@H](C)NC(=O)[C@H](CCCCNC(=O)COCCOCCNC(=O)COCCOCCNC(=O)CC[C@H](NC(=O)CCCCCCCCCCCCCCCCCCC(=O)O)C(=O)O)NC(=O)[C@H](CCC(N)=O)NC(=O)[C@H](C)NC(=O)[C@@H](NC(=O)[C@H](CCCCN)NC(=O)[C@H](CC(=O)O)NC(=O)[C@H](CC(C)C)NC(=O)C(C)(C)NC(=O)[C@@H](NC(=O)[C@H](CO)NC(=O)[C@H](Cc1ccc(O)cc1)NC(=O)[C@H](CC(=O)O)NC(=O)[C@H](CO)NC(=O)[C@@H](NC(=O)[C@H](Cc1ccccc1)NC(=O)[C@@H](NC(=O)CNC(=O)[C@H](CCC(=O)O)NC(=O)C(C)(C)NC(=O)[C@@H](N)Cc1ccc(O)cc1)[C@@H](C)O)[C@@H](C)O)[C@@H](C)CC)[C@@H](C)CC)C(C)C)C(=O)N[C@@H](C)C(=O)NCC(=O)NCC(=O)N1CCC[C@H]1C(=O)N[C@@H](CO)C(=O)N[C@@H](CO)C(=O)NCC(=O)N[C@@H](C)C(=O)N1CCC[C@H]1C(=O)N1CCC[C@H]1C(=O)N1CCC[C@H]1C(=O)N[C@@H](CO)C(N)=O [Tirzepatide] has an Emax (GLP-1R [3]) of less than 10%, an Emax (SNAP-tagged GLP-1R) of less than 40% and an Emax (GLP-1R [4]) of 40%.

In the case of exendin-4, the EC50 [5] is listed as 0.04 nM and the EC50 (GLP-1R [6]) is listed as 0.26 nM.

B1: Semaglutide (peptide)
chain: HAEGTFTSDVSSYLEGQAAKEFIAWLVRGRG
modifications: Aib at the 2nd residue (written X in the letters); C18 diacid-γGlu-(AEEA)2 on the lysine at the 20th residue
For B1, the “EC50 of cAMP accumulation, HEK293 cells with low density of human GIPR (1,700 receptors/cell)” value [7] was greater than 850 nM, the “EC50 of cAMP accumulation, HEK293 cells with medium density of human GIPR (6,400 receptors/cell)” value [7] was greater than 100 nM and the Ki [8] was greater than 500 nM.

B2: Tirzepatide (LY3298176) (peptide)
chain: Y[Aib]EGTFTSDYSI[Aib]LDKIAQK([AEEA-AEEA-γGlu-C20 diacid])AFVQWLIAGGPSSGAPPPS-NH2
B2 showed a Ki [9] of 0.163 nM.
